What was measured:
Assay type in all cases: functional
Schistosoma japonicum [1] = assay: Antiparasitic activity against Schistosoma japonicum assessed as worm survival at 50 uM incubated for 16 hrs measured after 24 hrs
Schistosoma japonicum [2] = assay: Antiparasitic activity against Schistosoma japonicum assessed as worm survival at 50 uM incubated for 16 hrs measured after 72 hrs
Schistosoma japonicum [3] = assay: Antiparasitic activity against Schistosoma japonicum assessed as worm survival at 50 uM incubated for 16 hrs measured after 48 hrs
Schistosoma japonicum [4] = assay: Antiparasitic activity against Schistosoma japonicum adult worm infected in ICR mouse assessed as worm reduction at 200 mg/kg, po administered for 3 days measured after 21 days; parameters: scale not given: the % may be the effect or the level left

| SMILES | survival at 50 µM (Schistosoma japonicum [1]) | survival at 50 µM (Schistosoma japonicum [2]) | survival at 50 µM (Schistosoma japonicum [3]) | Activity (Schistosoma japonicum [4]) |
| --- | --- | --- | --- | --- |
| CCOC(=O)C1Nc2ccccc2Nn2cccc21 (configuration not stated) | 100% | 100% | 100% | – |
| CC1=Nc2ccccc2N(C)n2cccc21 | 100% | 83.3% | 100% | 24.2% |
| O=C1Nc2ccccc2Sn2cccc21 | 100% | 100% | 100% | – |
| CCOC(=O)C1Nc2ccccc2Sn2c(Br)ccc21 (configuration not stated) | 100% | 66.7% | 100% | 12% |
| O=C(O)C1Nc2ccccc2S(=O)(=O)n2cccc21 (configuration not stated) | 100% | 100% | 100% | – |
| CCOC(=O)C1Nc2ccccc2[S+]([O-])n2cccc21 (configuration not stated) | 100% | 100% | 100% | – |
| CN1c2ccccc2N=Cc2cccn21 | 100% | 83.3% | 100% | 6.1% |
| CCOC(=O)C1Nc2ccccc2Sn2c(Cl)ccc21 (configuration not stated) | 100% | 33.3% | 83.3% | 51.5% |
| CCOC(=O)C1Nc2ccccc2Sn2cccc21 (configuration not stated) | 100% | 16.7% | 66.7% | 4.5% |
| CCOC(=O)C1Nc2ccccc2Cn2cccc21 (configuration not stated) | 100% | 83.3% | 100% | 74.2% |
| CCOC(=O)C1Nc2ccccc2N(C)n2cccc21 (configuration not stated) | 100% | 83.3% | 100% | 34.8% |
| CCOC(=O)C1Nc2ccccc2S(=O)(=O)n2cccc21 (configuration not stated) | 100% | 100% | 100% | – |
| O=C(C1CCCCC1)N1CC(=O)N2CCc3ccccc3C2C1 (configuration not stated) [PRAZIQUANTEL] | 66.7% | 33.3% | 33.3% | 96.9% |
